Reference: US8735584B2 (Merck Patent GmbH, priority 2008, dated 2014)
pIC50: −log10 of the molar value.

target: T1, GST-Aurora A (Homo sapiens, UniProt O14965); test: Aurora A IC50, Caliper LC3000 mobility shift assay; type: biochemical; settings: LC3000 method; 15 uM ATP (the KM value); read-out: Aurora Kinase A Activity (IC50)
T1 construct: N-terminal GST fusion with full length Aurora A (1-403 amino acids); purchased Carna Biosciences 05-101
T1 sequence (O14965 1-403): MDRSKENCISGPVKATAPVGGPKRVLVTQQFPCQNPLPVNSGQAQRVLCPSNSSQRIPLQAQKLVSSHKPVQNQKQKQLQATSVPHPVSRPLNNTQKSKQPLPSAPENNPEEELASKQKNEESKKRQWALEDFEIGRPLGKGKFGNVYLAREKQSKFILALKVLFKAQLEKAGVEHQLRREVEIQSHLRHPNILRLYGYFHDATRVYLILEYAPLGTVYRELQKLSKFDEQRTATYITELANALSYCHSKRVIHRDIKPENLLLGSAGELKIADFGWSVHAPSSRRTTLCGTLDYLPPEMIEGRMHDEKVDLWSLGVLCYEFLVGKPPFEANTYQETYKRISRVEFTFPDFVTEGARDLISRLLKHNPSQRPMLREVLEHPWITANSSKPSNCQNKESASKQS
Experimental: The Aurora assays described here are performed on two Caliper Life Sciences systems: the LC3000 and the Desktop Profiler. These provide data on enzyme activity via measurement of the relative amounts of phosphorylated or unphosphorylated fluorescently labelled substrate peptide at the end of an enzymatic reaction. These different states of peptide are resolved by applying a potential difference across the sample. The presence of the charged phosphate group on the product (as opposed to the substrate) causes a different peptide mobility between the two peptides. This is visualized by excitation of the fluorescent label on the substrate and product peptides and represented as peaks within the analysis software.
In order to measure inhibitor activity of Aurora A inhibitors in the Caliper Life Sciences LC3000, a TTP Mosquito liquid handling instrument is used to place 0.25 ul of the appropriate concentration of inhibitor in 100% DMSO (for a dose response curve calculation) into each well of a 384-well plate. To this reaction components are added to a final volume of 25 ul: • 0.067 ng/ul GST-Aurora A (Carna Biosciences 05-101. N-terminal GST fusion with full length Aurora A (1-403 amino acids), accession number NP 940835.1). • 15 uM ATP (Fluke, 02055) • 1 mM DTT (Sigma, D0632) • 1 mM MgCl2 (Sigma, M1028) • 1 uM substrate peptide (sequence FITC-LRRASLG-(CONH2), synthesized by Tufts Peptide Synthesis service. • 100 mM HEPES pH 7.5 (Calbiochem, 391338) • 0.015% Brij-35 (Sigma, B4184)
The reaction is incubated for 90 min at 25 C, and then stopped by the addition of 70 ul of Stop buffer (100 mM HEPES pH 7.5, 0.015% Brij-35, 10 mM EDTA (Sigma, E7889)).
The plate is read on a Caliper LC3000 in an Off-Chip mobility shift assay format, using the following parameters for a 12-sipper chip: screening pressure—1.8 psi, upstream voltage—2700, downstream voltage—1000. These conditions cause unphosphorylated substrate and phosphorylated product peptide to resolve as separate peaks allowing direct measurement of percentage of conversion of substrate to product. The percent conversion can be plotted against concentration of inhibitor to produce a sigmoidal dose response curve, from which an 1050 can be calculated using XLFit for Microsoft Excel.
In the desired wells of a 384-well plate, Aurora A (0.067 ng/ul) was incubated with 15 uM ATP (the KM value), 1 mM DTT, 1 mM MgCl2, and 1 uM peptide substrate (sequence FITC-LRRASLG-(CONH2), FITC=fluorescein isothiocyanate) in 100 mM HEPES pH 7.5 and 0.015% Brij-35 buffer. The reaction was incubated for 90 min at 25 C, and then stopped by the addition of 45 ul of Stop buffer (100 mM HEPES ph 7.5, 0.015% Brij-35, 10 mM EDTA).
The plate was read in a Caliper LC 3000 in an Off-Chip mobility shift assay format, using the following parameters: screening pressure—1.8 psi, upstream voltage—2700, downstream voltage—1000. These conditions cause unphosphorylated substrate peptide to resolve as a peak before that of the phosphorylated peptide product.
In the following table “+” means >100 nM, “++” means 11-100 nM, and “+++” means <11 nM.

SMILES	pIC50
O=C(Nc1ccc(Nc2ccnc3[nH]c(=O)c4c(C(=O)O)cccc4c23)cc1)c1ccccc1 [Compound 434, 1-[4-Benzoylamino-phenylamino)-6-oxo-5,6-dihydro-benzo[c][1,8]naphthyridin-7-carboxylic acid]	7.00 to 7.96
O=C(Nc1ccc(Nc2ccnc3[nH]c(=O)c4ccccc4c23)cc1)C1CCCCC1 [Compound 386, Cyclohexanecarboxylic acid-[4-(6-oxo-5,6-dihydro-benzo[c][1,8]naphthyridin-1-ylamino)-phenyl]-amide]	> 7.96
Cc1ccccc1CNc1ccc2c(=O)[nH]c3ncccc3c2c1 [Example 46, 9-(2-Methyl-benzylamino)-5H-benzo[c][1,8]naphthyridin-6-one]	< 7.00
CC(NC(=O)CN1CCC(Nc2ccnc3[nH]c(=O)c4ccccc4c23)CC1)c1ccccc1 (centres unmarked) [Compound 288, 2-(4-(6-Oxo-5,6-dihydrobenzo[c][1,8]naphthyridin-1-ylamino)piperidin-1-yl)-N-(1-phenylethyl)acetamide]	< 7.00
O=C(Nc1ccc(Nc2ccnc3[nH]c(=O)c4ccccc4c23)cc1)C1(C(F)(F)F)CC1 [Compound 501, N-(4-(6-Oxo-5,6-dihydrobenzo[c][1,8]naphthyridin-1-ylamino)phenyl)-1-(trifluoromethyl)cyclopropanecarboxamide]	7.00 to 7.96
O=c1[nH]c2ncccc2c2cc(NCc3ccc(Cl)cc3)ccc12 [Compound 452, 9-(4-Chlorobenzylamino)benzo[c][1,8]naphthyridin-6(5H)-one]	< 7.00
O=C(Cc1ccccc1)Nc1ccc(Nc2ccnc3[nH]c(=O)c4ccccc4c23)cc1 [Compound 350, N-(4-(6-Oxo-5,6-dihydrobenzo[c][1,8]naphthyridin-1-ylamino)phenyl)-2-phenylacetamide]	7.00 to 7.96
O=c1[nH]c2ncccc2c2cc(NCc3ccccc3Cl)ccc12 [Compound 470, 9-(2-Chlorobenzylamino)benzo[c][1,8]naphthyridin-6(5H)-one]	7.00 to 7.96
O=c1[nH]c2ncccc2c2cc(Nc3ccccc3F)ccc12 [Example 32, 9-(2-Fluoro-phenylamino)-5H-benzo[c][1,8]naphthyridin-6-one]	< 7.00
O=C(Cn1cc(Nc2ccnc3[nH]c(=O)c4ccccc4c23)cn1)Nc1ccc(F)cc1 [Compound 430]	< 7.00
O=C(Nc1ccc(Nc2ccnc3[nH]c(=O)c4ccc(CO)cc4c23)cc1)c1ccccc1 [Compound 279, N-(4-(9-(Hydroxymethyl)-6-oxo-5,6-dihydrobenzo[c][1,8]naphthyridin-1-ylamino)phenyl)benzamide]	> 7.96
O=C(Nc1ccc(Nc2ccnc3[nH]c(=O)c4ccccc4c23)cc1)c1cc(F)cc(C(F)(F)F)c1 [Compound 396, 3-Fluoro-N-[4-(6-oxo-5,6-dihydro-benzo[c][1,8]naphthyridin-1-ylamino)-phenyl]-5-trifluoromethyl-benzamide]	> 7.96
O=C(O)c1ccc2c(=O)[nH]c3nccc(Nc4ccc(NC(=O)c5ccccc5)cc4)c3c2c1 [Compound 281, 1-(4-Benzamidophenylamino)-6-oxo-5,6-dihydrobenzo[c][1,8]naphthyridine-9-carboxylic acid]	> 7.96

Continued, values first:

pIC50	SMILES
> 7.96	CN(C)CCNC(=O)c1cccc2c1c(=O)[nH]c1nccc(Nc3ccc(NC(=O)c4ccccc4)cc3)c12 [Compound 435, 1-[4-Benzoylamino-phenylamino)-6-oxo-5,6-dihydro-benzo[c][1,8]naphthyridin-7-carboxylic acid 2-dimethylamino-ethyl amide]
7.00 to 7.96	O=C(Nc1ccc(Oc2ccnc3[nH]c(=O)c4ccccc4c23)cc1)c1ccccc1 [Compound 405, N-[4-(6-Oxo-5,6-dihydro-benzo[c][1,8]naphthyridin-1-yloxy)-phenyl]-benzamide]
7.00 to 7.96	O=C(Nc1ccc(Nc2ccnc3[nH]c(=O)c4ccccc4c23)cc1)C1(c2ccccc2)CC1 [Compound 502, N-(4-(6-Oxo-5,6-dihydrobenzo[c][1,8]naphthyridin-1-ylamino)phenyl)-1-phenylcyclopropanecarboxamide]
7.00 to 7.96	CN1CCN(c2ccc3c(c2)c(=O)[nH]c2nccc(Nc4ccc(NC(=O)c5ccccc5)cc4)c23)CC1 [Compound 276, N-(4-(8-(4-Methylpiperazin-1-yl)-6-oxo-5,6-dihydrobenzo[c][1,8]naphthyridin-1-ylamino)phenyl)benzamide]
< 7.00	Clc1nc2ncccc2c2cc(NCc3ccccc3)ccc12 [Example 53, Benzyl-(6-chloro-benzo[c][1,8]naphthyridin-9-yl)-amine]
> 7.96	O=C(Nc1ccc(Nc2ccnc3[nH]c(=O)c4ccc(Cl)cc4c23)cc1)c1ccccc1 [Compound 293, N-(4-(9-Chloro-6-oxo-5,6-dihydrobenzo[c][1,8]naphthyridin-1-ylamino)phenyl)benzamide]
> 7.96	O=C(Nc1ccc(Nc2ccnc3[nH]c(=O)c4ccc(F)cc4c23)cc1)c1ccc(F)c(F)c1 [Compound 417, 3,4-Difluoro-N-[4-(9-fluoro-6-oxo-5,6-dihydro-benzo[c][1,8]naphthyridin-1-ylamino)-phenyl]-benzamide]
7.00 to 7.96	O=C(Cn1cccn1)Nc1ccc(Nc2ccnc3[nH]c(=O)c4ccccc4c23)cc1 [Compound 503, N-(4-(6-Oxo-5,6-dihydrobenzo[c][1,8]naphthyridin-1-ylamino)phenyl)-2-(1H-pyrazol-1-yl)acetamide]
> 7.96	O=C(Nc1ccc(Nc2ccnc3[nH]c(=O)c4ccccc4c23)cc1)c1ccc(F)cc1 [Compound 382, 4-Fluoro-N-[4-(6-oxo-5,6-dihydro-benzo[c][1,8]naphthyridin-1-ylamino)-phenyl]-benzamide]
> 7.96	COC(=O)c1ccc2c(c1)c(=O)[nH]c1nccc(Nc3ccc(NC(=O)c4ccccc4)cc3)c12 [Compound 267, Methyl 1-(4-benzamidophenylamino)-6-oxo-5,6-dihydrobenzo[c][1,8]naphthyridine-8-carboxylate]
7.00 to 7.96	O=c1[nH]c2ncccc2c2cc(NCc3ccccc3C(F)(F)F)ccc12 [Example 48, 9-(2-Trifluoromethyl-benzylamino)-5H-benzo[c][1,8]naphthyridin-6-one]
7.00 to 7.96	O=c1[nH]c2ncccc2c2cc(NCc3cccc(C(F)(F)F)c3)ccc12 [Example 69, 9-(3-Trifluoromethyl-benzylamino)-5H-benzo[c][1,8]naphthyridin-6-one]
> 7.96	O=C(Nc1ccc(Nc2ccnc3[nH]c(=O)c4ccccc4c23)cc1)c1ccccc1C(F)(F)F [Compound 379, N-[4-(6-Oxo-5,6-dihydro-benzo[c][1,8]naphthyridin-1-ylamino)-phenyl]-2-trifluoromethyl-benzamide]
> 7.96	O=C(Nc1ccc(Nc2ccnc3[nH]c(=O)c4ccccc4c23)cc1)c1ccc(C(F)(F)F)cc1F [Compound 397, 2-Fluoro-N-[4-(6-oxo-5,6-dihydro-benzo[c][1,8]naphthyridin-1-ylamino)-phenyl]-4-trifluoromethyl-benzamide]
< 7.00	O=C(Cn1cc(Nc2ccnc3[nH]c(=O)c4ccccc4c23)cn1)Nc1ccc(C(F)(F)F)cc1 [Compound 431]
< 7.00	Cn1ccc(-c2ccc(Nc3ccnc4[nH]c(=O)c5ccccc5c34)cc2)n1 [Compound 335, 1-(4-(1-Methyl-1H-pyrazol-3-yl)phenylamino)benzo[c][1,8]naphthyridin-6(5H)-one]
